Test results taken from US8357659B2, “Method of treating pain or itching with APETx2 peptide toxin” (priority 2008, dated 2013).

Assays:
heteromer ASIC2b+3 = target: T1, heteromer ASIC2b+3 (Rattus norvegicus, UniProt O35240+Q62962); conditions: cited from earlier work
T1 sequence (Q62962 1-563 isoform Q62962-2): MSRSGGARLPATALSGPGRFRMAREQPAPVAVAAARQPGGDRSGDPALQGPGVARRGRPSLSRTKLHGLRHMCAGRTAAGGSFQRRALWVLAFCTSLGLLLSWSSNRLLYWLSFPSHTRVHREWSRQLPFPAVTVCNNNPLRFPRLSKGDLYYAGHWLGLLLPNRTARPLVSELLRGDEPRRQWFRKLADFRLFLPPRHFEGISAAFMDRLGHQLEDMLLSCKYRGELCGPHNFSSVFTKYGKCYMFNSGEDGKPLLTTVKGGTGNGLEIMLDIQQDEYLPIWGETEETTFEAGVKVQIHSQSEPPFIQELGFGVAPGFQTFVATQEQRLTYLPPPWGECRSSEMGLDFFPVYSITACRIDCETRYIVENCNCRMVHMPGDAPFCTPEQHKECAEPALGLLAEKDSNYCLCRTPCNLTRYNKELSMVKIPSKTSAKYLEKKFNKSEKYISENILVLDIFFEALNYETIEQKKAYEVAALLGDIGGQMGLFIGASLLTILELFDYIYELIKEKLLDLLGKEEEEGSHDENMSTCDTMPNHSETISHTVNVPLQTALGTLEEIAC
T1 sequence (O35240 1-533): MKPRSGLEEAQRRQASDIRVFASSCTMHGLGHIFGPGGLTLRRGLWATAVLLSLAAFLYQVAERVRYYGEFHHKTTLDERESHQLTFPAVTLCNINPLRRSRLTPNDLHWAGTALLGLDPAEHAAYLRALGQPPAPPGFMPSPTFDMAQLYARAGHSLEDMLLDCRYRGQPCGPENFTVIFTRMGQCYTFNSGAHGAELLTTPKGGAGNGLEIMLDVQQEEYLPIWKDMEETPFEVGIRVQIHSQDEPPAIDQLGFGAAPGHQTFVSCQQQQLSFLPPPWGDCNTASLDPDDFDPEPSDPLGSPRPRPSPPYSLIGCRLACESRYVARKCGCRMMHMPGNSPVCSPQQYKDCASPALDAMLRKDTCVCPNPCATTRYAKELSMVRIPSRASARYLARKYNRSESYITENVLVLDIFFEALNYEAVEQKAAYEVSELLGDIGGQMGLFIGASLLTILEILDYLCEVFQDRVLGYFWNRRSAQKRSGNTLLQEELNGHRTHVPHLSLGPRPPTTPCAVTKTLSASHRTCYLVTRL

[1] = system: thermal hyperalgesia induced by CFA; experiment: Inflammation-induced (CFA) thermal hyperalgesia in rats, hotplate at 50° C.; format: in vivo, rat
Procedure: Sensitivity to heat of adult male Wistar rats (Charles River, France) was tested by measuring the time taken by the animal to retract one of its hind paws when placed on a hotplate at 50° C. (Bioseb, France), before and after induction of inflammation by subcutaneous injection of a solution of Freund's complete adjuvant (CFA, Sigma-Aldrich, France). The rats were acclimatised to the experimentation room for at least 30 minutes and each measurement was performed in duplicate. An initial measurement was performed before induction of inflammation. The rats were subsequently anaesthetised (isofluorane) while 150 μl of CFA diluted 1:1 with a saline solution (0.9% NaCl) containing either toxins (PcTx1 or APETx2, 120 nM and 20 μM, respectively) or the vehicle was injected (26G needle mounted on a 1 ml syringe) subcutaneously into the plantar side of one of the hind paws. The time taken by the animal to lift the injected hind paw was subsequently measured at 50° C., 2, 4 and 24 hours after the injection of CFA.
ASIC3 channel-specific iRNA (no. 1121; CTACACGCTATGCCAAGGA, SEQ ID NO: 1) and its control (no. 1121S; GCTCACACTACGCAGAGAT, SEQ ID NO: 2) were designed in the laboratory and were synthesised by MWG Biotech Company (Germany). The ASIC3-specific iRNA was validated by quantification of the messenger RNA levels by quantitative RT-PCR for each ASIC channel and for the TRPV1 channel, following intrathecal injections into the lumbar region of the spinal cord of rats, at a rate of one injection per day for 3 consecutive days, before the animal was sacrificed. The same procedure was followed before induction of inflammation by CFA. Each injection was 10 μl in volume, containing 2 μg of iRNA mixed with the transfection agent i-Fect (Neuromics) at a ratio of 1 to 4.

ASIC1a = target: T2, ASIC1a (Rattus norvegicus, UniProt P55926); conditions: cited from earlier work
T2 sequence (P55926 1-526): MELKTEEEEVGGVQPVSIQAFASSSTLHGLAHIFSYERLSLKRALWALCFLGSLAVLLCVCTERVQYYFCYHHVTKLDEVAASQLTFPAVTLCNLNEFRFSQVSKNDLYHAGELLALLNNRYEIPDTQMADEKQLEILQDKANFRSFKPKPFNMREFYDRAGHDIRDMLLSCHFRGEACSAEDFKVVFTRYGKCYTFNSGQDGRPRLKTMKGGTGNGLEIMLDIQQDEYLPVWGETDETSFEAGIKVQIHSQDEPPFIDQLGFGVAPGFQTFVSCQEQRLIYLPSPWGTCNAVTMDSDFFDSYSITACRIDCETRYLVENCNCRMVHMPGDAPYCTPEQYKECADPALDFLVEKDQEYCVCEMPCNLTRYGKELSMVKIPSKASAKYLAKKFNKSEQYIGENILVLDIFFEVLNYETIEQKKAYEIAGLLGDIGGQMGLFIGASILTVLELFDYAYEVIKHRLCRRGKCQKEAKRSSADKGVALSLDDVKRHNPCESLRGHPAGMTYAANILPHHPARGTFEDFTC

ASIC1b = target: T3, ASIC1b (Rattus norvegicus, UniProt P55926); conditions: cited from earlier work
T3 sequence (P55926 1-559 isoform P55926-3): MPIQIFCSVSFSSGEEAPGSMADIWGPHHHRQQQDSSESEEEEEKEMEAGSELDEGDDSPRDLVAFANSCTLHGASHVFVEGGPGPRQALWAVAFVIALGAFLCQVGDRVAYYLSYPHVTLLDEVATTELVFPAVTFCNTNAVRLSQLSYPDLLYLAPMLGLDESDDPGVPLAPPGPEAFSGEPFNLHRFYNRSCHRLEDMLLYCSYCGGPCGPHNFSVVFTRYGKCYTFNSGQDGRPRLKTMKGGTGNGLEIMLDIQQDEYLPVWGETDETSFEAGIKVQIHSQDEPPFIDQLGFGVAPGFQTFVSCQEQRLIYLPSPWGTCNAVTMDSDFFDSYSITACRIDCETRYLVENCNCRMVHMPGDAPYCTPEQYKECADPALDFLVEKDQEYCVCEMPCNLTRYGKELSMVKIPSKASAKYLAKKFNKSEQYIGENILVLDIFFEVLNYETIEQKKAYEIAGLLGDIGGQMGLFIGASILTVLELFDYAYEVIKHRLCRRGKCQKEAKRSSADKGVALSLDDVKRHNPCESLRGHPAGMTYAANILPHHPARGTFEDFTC

peptide of 42 amino acids (SEQ ID NO: 3), three disulphide bonds, from sea anemone Anthopleura elegantissima; blocks ASIC3 [APETx2]
effect on the current of the heteromer ASIC2b+3 (heteromer ASIC2b+3): inhibits
development of thermal hyperalgesia ([1]; toxin concomitantly injected with CFA (APETx2 20 μM, PcTx1 120 nM), four hours after CFA): does not develop
thermal hyperalgesia behaviour versus vehicle control animals ([1]; twenty hours after the injection of CFA, data not represented): do not display any behaviour different
effect on ASIC1a isoform (ASIC1a): does not have any effect
effect on ASIC1b isoform (ASIC1b): does not have any effect
